Drawing on PubChem BioAssay AID540260 (Sanford-Burnham Center for Chemical Genomics, 2011), this text covers IC50 for 5 compounds.

The structures appear in SMILES notation. Active and inactive are the calls of the source. The rule behind the calls is not given here. Bounds are passed on as bounds.

For this experiment, the target named is Alkaline phosphatase, placental type (Homo sapiens) (UniProt P05187). Put plainly: inhibitors of placental alkaline phosphatase – biochemical, human PLAP isozyme, set 2, selectivity assay for human IAP inhibitor project, SAR follow-up (AID 540260). Particulars: purified placental alkaline phosphatase enzyme activity.

As usually defined, the IC50 is the concentration that gives 50% inhibition. With `N#Cc1ccc(CNC(=O)CCNS(=O)(=O)c2ccc3[nH]c(=O)oc3c2)cc1`, the IC50 was > 100 µM (inactive).
Turning to `Cc1ccc(C)c(NC(=O)CCNS(=O)(=O)c2ccc3[nH]c(=O)oc3c2)c1`, the IC50 was > 100 µM (inactive).
In the case of `O=C(CNS(=O)(=O)c1ccc2[nH]c(=O)oc2c1)NCc1ccc2c(c1)OCO2` it was > 100 µM (inactive); in that of `O=C(CNS(=O)(=O)c1ccc2[nH]c(=O)oc2c1)Nc1ccc2c(c1)OCO2`, > 100 µM (inactive); in that of `COc1ccc(NC(=O)CNS(=O)(=O)c2ccc3[nH]c(=O)oc3c2)cc1OC`, > 100 µM (inactive).
